One experiment concerns KG-1a. As to the kind of experiment: Antiproliferative activity against human KG-1a cells assessed as decrease in cell viability incubated for 72 hrs by trypan blue exclusion assay. The format is functional, cell-based.
The test system of experiment [1] is NCI-H1299. Briefly: Antiproliferative activity against human NCI-H1299 cells assessed as decrease in cell viability incubated for 72 hrs by trypan blue exclusion assay. The format is functional, cell-based. As to conditions: NCI-H1299, 72 h.
Experiment [2] concerns A549. As to the kind of experiment: Antiproliferative activity against human A549 cells assessed as reduction in cell viability incubated for 72 hrs by CCK8 assay. In kind it is functional, cell-based. As to conditions: A549, 72 h. Background: Tetrazolium dyes change colour on reduction, which living cells bring about.
The next experiment concerns PC-9. As to the kind of experiment: Antiproliferative activity against human PC-9 cells assessed as reduction in cell viability incubated for 72 hrs by CCK8 assay. The format is functional, cell-based. To be noted: PC-9, 72 h.
In experiment [3] the target is T1, Phosphoglycerate mutase 1 (Homo sapiens, UniProt P18669). As to the kind of experiment: Inhibition of His-tagged recombinant PGAM1 (unknown origin) expressed in Escherichia coli BL21 assessed as decrease in absorbance from oxidation of NADH in presence of LDH, pyruvate kinase M1 and NADH by microplate reader assay.
T1 sequence (P18669 whole entry): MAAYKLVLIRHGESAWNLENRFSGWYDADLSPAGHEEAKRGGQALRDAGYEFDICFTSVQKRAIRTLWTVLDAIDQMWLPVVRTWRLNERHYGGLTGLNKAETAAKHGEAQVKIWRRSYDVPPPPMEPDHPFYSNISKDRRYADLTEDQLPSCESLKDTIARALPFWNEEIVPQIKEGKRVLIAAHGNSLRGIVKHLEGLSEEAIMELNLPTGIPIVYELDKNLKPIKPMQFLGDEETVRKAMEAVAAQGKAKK
Experiment [4] concerns the target T1, Phosphoglycerate mutase 1. As to the kind of experiment: Inhibition of recombinant PGAM1 (unknown origin) assessed as decrease in absorbance in presence of LDH, pyruvate kinase M2 and NADH by spectroscopic analysis.
A further experiment relates to PANC-1. Briefly: Antiproliferative activity against human PANC-1 cells assessed as reduction in cell viability incubated for 24 hrs by CCK-8 assay. In kind it is functional, cell-based. As to conditions: PANC-1, 24 h.
In another experiment the test system is ASPC1. Briefly: Antiproliferative activity against human ASPC1 cells assessed as reduction in cell viability incubated for 24 hrs by CCK-8 assay. In kind it is functional, cell-based. As to conditions: ASPC1, 24 h.
The next experiment relates to MIA PaCa-2. As to the kind of experiment: Antiproliferative activity against human MIA PaCa-2 cells assessed as reduction in cell viability incubated for 24 hrs by CCK-8 assay. As to conditions: MIA PaCa-2, 24 h. In kind it is functional, cell-based.
The test system of experiment [5] is NCI-H1299. Briefly: Antiproliferative activity against human NCI-H1299 cells assessed as reduction in cell viability incubated for 72 hrs by MTT assay. The format is functional, cell-based. As to conditions: NCI-H1299, 72 h.
Experiment [6] deals with A549. Briefly: Antiproliferative activity against human A549 cells assessed as reduction in cell viability incubated for 72 hrs by MTT assay. To be noted: A549, 72 h. The format is functional, cell-based.
Experiment [7] relates to HCC827. As to the kind of experiment: Antitumor activity against erlotinib-resistant human HCC827 cells assessed as reduction in cell viability incubated for 72 hrs by CCK-8 assay. In kind it is functional, cell-based. To be noted: HCC827, 72 h.
The subject of experiment [8] is HCC827. As to the kind of experiment: Antitumor activity against human HCC827 cells assessed as reduction in cell viability incubated for 72 hrs by CCK-8 assay. The format is functional, cell-based. As to conditions: HCC827, 72 h.
The subject of experiment [9] is A549. As to the kind of experiment: Antitumor activity against human A549 cells assessed as reduction in cell viability incubated for 72 hrs by CCK-8 assay. The format is functional, cell-based. As to conditions: A549, 72 h.
Experiment [10] addresses T1, Phosphoglycerate mutase 1. Briefly: Allosteric inhibition of PGAM1 (unknown origin) assessed as decrease in absorbance in presence of LDH, pyruvate kinase M2 and NADH by spectroscopic analysis.
Another experiment has as its system MDA-MB-231. Briefly: Antiproliferative activity against human MDA-MB-231 cells assessed as inhibition of cell proliferation incubated for 12 hrs by BrdU incorporation assay. The format is functional, cell-based. To be noted: MDA-MB-231, 12 h. For orientation: Dividing cells build labelled thymidine or BrdU into new DNA.
Experiment [11] concerns the target T1, Phosphoglycerate mutase 1. Briefly: Inhibition of human PGAM1 in human MDA-MB-231 cells assessed as decrease in PGAM1 activity incubated for 2 hrs by UV/Vis spectrophotometry. In kind it is cell-based.
The target in experiment [12] is T1, Phosphoglycerate mutase 1. Briefly: Inhibition of His6-tagged human PGAM1 expressed in Escherichia coli BL21(DE3)pLysS cells assessed as decrease in autofluorescence from oxidation of NADH in presence of LDH and pyruvate kinase M1 by multiple enzymes coupled assay.

This note sets out measurements from ChEMBL document CHEMBL5247579, “Targeting PGAM1 in cancer: An emerging therapeutic opportunity” (Eur J Med Chem, 2022).

Usually EC50 stands for the midpoint of the concentration-response curve. For orientation: IC50 means the midpoint of a concentration-inhibition curve.

SMILES strings stand for the structures.

On to `O=C1c2ccccc2C(=O)c2c1cc(S(=O)(=O)Nc1ccc(C(F)(F)F)cc1)c(O)c2O`, for which the EC50 in the experiment with KG-1a is 17.1 µM; with NCI-H1299 [1], 25.6 µM; in the experiment with A549 [2], 38.7 µM; with PC-9, 17.8 µM.

For the compound `[N-]=[N+]=NCCCCC(=O)Oc1ccccc1S(=O)(=O)Nc1cc2c(c(O)c1O)C(=O)c1ccccc1C2=O`, the IC50 in experiment [3] came to 1300 nM.

Regarding `O=C1c2ccccc2C(=O)c2c1cc(NS(=O)(=O)c1ccc(N3CCCC3)cc1)c(O)c2O`, the IC50 in experiment [4] worked out at 105 nM. Also, the EC50 in the experiment with PANC-1 was 501 nM; in the experiment on ASPC1 it was 510 nM; with MIA PaCa-2, 271 nM.

For the compound `CN(C)c1ccc(S(=O)(=O)Nc2cc3c(c(O)c2O)C(=O)c2ccccc2C3=O)cc1`, the IC50 in [4] worked out at 770 nM.

For the compound `O=C1c2ccccc2C(=O)c2c1cc(NS(=O)(=O)O)c(O)c2O`, the half-maximal inhibitory concentration (IC50) in experiment [4] was 5400 nM.

For the compound `CC(=O)Oc1ccccc1S(=O)(=O)Nc1cc2c(c(O)c1O)C(=O)c1ccccc1C2=O`, the half-inhibitory concentration (IC50) in experiment [3] turned out to be 1000 nM.

On to `O=C1c2ccccc2C(=O)c2c1cc(NS(=O)(=O)c1ccc(Cl)cc1)c(O)c2O`, for which the EC50 in the experiment with NCI-H1299 [5] was found to be 6.9 µM; in the experiment with A549 [6], 12.7 µM.

As for `O=C1c2ccccc2C(=O)c2c1cc(NS(=O)(=O)c1ccc(N3CCC3)cc1)c(O)c2O`, the EC50 in the experiment on HCC827 [7] was determined as 1020 nM; with HCC827 [8] it was 1700 nM; in the experiment with A549 [9], 5.62 µM. Besides, the IC50 in experiment [10] is 850 nM.

For `C#CCCCC(=O)OC(C)(C)C1CCCOC(OC(=O)N[C@@H](Cc2c[nH]c3ccccc23)C(=O)OCc2ccccc2)C1` (some centres not stated), the IC50 in the experiment on MDA-MB-231 came out at 19 µM. Moreover, the concentration for a half-maximal effect (EC50) in [11] stood at 33 µM.

For `O=C1c2ccccc2C(=O)c2c1ccc(O)c2O` [ATHRAQUINONES A], the IC50 in [12] is above 20 µM. The concentration giving a half-maximal response (EC50) in the experiment on KG-1a worked out at 60.2 µM.
